Data on 1 compound can be found in paper PMC7264150 (Nature Communications, 2020).

The assay deals with T1, Pl-TcdA1 (Photorhabdus luminescens, UniProt Q9RN43).
T1 construct: gene tcdA
The format is binding.

Consider `CC(=O)N[C@H]1C(O)O[C@H](CO)[C@@H](O[C@@H]2O[C@H](CO)[C@H](O)[C@H](O)[C@H]2O[C@@H]2O[C@@H](C)[C@@H](O)[C@@H](O)[C@@H]2O)[C@@H]1O[C@@H]1O[C@@H](C)[C@@H](O)[C@@H](O)[C@@H]1O` (stereo partly shown) [Lewis Y], for which the “glycan microarray, AlexaFluor488-labelled toxin” value is “tetrasaccharides Lewis Y and sialyl-Lewis X interacted strongly with Pl-TcdA1”.
